Results from the supplement of paper PMC9663587.

Columns and labels:
Assay in all cases: GRmax, 72 h; higher = less effect;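 further: breast cell lines in 384-well plates, nine doses across a 10^4 range, Dye Drop imaging of viable cells vs DMSO and time-zero plates, GR 0 means no net growth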
[1] = system: HCC1937
[2] = system: BT20
[3] = system: HTERT_HME1
[4] = system: HCC1419
[5] = system: AU565
[6] = system: ZR751
[7] = system: MGH312
[8] = system: HCC1806
[9] = system: MDAMB436
[10] = system: MDAMB175VII
[11] = system: MDAMB330
[12] = system: 184A1
[13] = system: HCC202
[14] = system: SUM185PE

SMILES	GRmax, 72 h [1] [GR]	GRmax, 72 h [2] [GR]	GRmax, 72 h [3] [GR]	GRmax, 72 h [4] [GR]	GRmax, 72 h [5] [GR]	GRmax, 72 h [6] [GR]	GRmax, 72 h [7] [GR]	GRmax, 72 h [8] [GR]	GRmax, 72 h [9] [GR]	GRmax, 72 h [10] [GR]	GRmax, 72 h [11] [GR]	GRmax, 72 h [12] [GR]	GRmax, 72 h [13] [GR]	GRmax, 72 h [14] [GR]
CO[C@H]1C[C@@H]2CC[C@@H](C)[C@@](O)(O2)C(=O)C(=O)N2CCCC[C@H]2C(=O)O[C@H]([C@H](C)C[C@@H]2CC[C@@H](OCCO)[C@H](OC)C2)CC(=O)[C@H](C)/C=C(\C)[C@@H](O)[C@@H](OC)C(=O)[C@H](C)C[C@H](C)/C=C/C=C/C=C/1C [Everolimus] (max 10 µM)	0.632	0.39	0.489	0.18	0.4	0.305	0.148	0.817	0.615	-0.189	-0.378	0.501	0.474	0.78
CCC(=O)Nc1ccc(C(=O)Nc2ccc(Nc3ncc4c(n3)N(C)c3ccc(C)cc3C(=O)N4C)cc2)cc1 [FMF-03-145-1]	-0.0558	-0.201	-0.0813	0.387	-0.153	0.153	-0.365	-0.09	-0.189	0.0817	-0.0541	-0.0063	0.23	0.205
COc1cc(N2CCN(C)CC2)ccc1Nc1ncc2c(n1)N(C)c1ccccc1C(=O)N2CC(F)(F)F [FMF-03-146-1]	0.846	0.973	0.785	0.805	0.63	0.939	0.866	0.942	0.89	0.887	0.866	1.04	0.892	0.833
CN1CC[C@H](c2c(O)cc(O)c3c(=O)cc(-c4ccccc4Cl)oc23)[C@H](O)C1 [Flavopiridol] (max 1 µM)	-0.215	-0.639	-0.408	-0.263	-0.69	-0.353	-0.945	-0.568	-0.0264	-0.309	-0.892	-0.329	0.027	0.155
CC(C)n1nc(-c2ccc3oc(N)nc3c2)c2c(N)ncnc21 [INK128/MLN0128] (max 3.162 µM)	0.358	-0.0045	0.197	-0.147	-0.496	-0.0856	-0.89	0.262	0.211	-0.886	-0.77	0.139	-0.01	0.139
CC(C)NC[C@@H](C(=O)N1CCN(c2ncnc3c2[C@H](C)C[C@H]3O)CC1)c1ccc(Cl)cc1 [Ipatasertib/GDC0068] (max 10 µM)	0.535	0.102	0.635	0.505	0.274	0.608	-0.936	0.945	0.611	-0.5	-0.657	0.631	0.306	0.455
CN(C)C(=O)c1cc2cnc(Nc3ccc(N4CCNCC4)cn3)nc2n1C1CCCC1 [LEE011/Ribociclib] (max 10 µM)	1.03	0.092	0.292	0.547	0.244	0.381	0.894	0.682	0.951	0.159	0.157	0.11	0.778	0.824
CCNC(=O)c1noc(-c2cc(C(C)C)c(O)cc2O)c1-c1ccc(CN2CCOCC2)cc1 [Luminespib/NVP-AUY922] (max 1 µM)	-0.187	-0.049	-0.335	-0.297	-0.231	0.0576	-0.685	-0.175	-0.0492	-0.455	-0.344	0.0336	0.115	-0.103
CCOc1cc2ncc(C#N)c(Nc3ccc(OCc4ccccn4)c(Cl)c3)c2cc1NC(=O)/C=C/CN(C)C [Neratinib/HKI272] (max 3.162 µM)	0.3	0.303	0.0983	-0.501	-0.638	0.709	-0.278	-0.0883	0.0162	-0.979	-0.655	0.162	0.0762	0.25
O=C(c1cc(Cc2n[nH]c(=O)c3ccccc23)ccc1F)N1CCN(C(=O)C2CC2)CC1 [Olaparib/AZD2281] (max 10 µM)	0.685	0.606	0.591	0.632	0.572	0.801	0.537	0.489	0.238	0.466	0.46	0.563	0.606	0.75
CC(=O)O[C@H]1C(=O)[C@@]2(C)[C@H]([C@H](OC(=O)c3ccccc3)[C@]3(O)C[C@H](OC(=O)[C@H](O)[C@@H](NC(=O)c4ccccc4)c4ccccc4)C(C)=C1C3(C)C)[C@]1(OC(C)=O)CO[C@@H]1C[C@@H]2O [Paclitaxel] (max 1 µM)	0.0104	-0.576	-0.224	0.214	-0.498	-0.0835	-0.508	-0.211	-0.218	-0.469	-0.438	-0.268	0.0855	0.298
CS(=O)(=O)N1CCN(Cc2cc3nc(-c4cccc5[nH]ncc45)nc(N4CCOCC4)c3s2)CC1 [Pictilisib/GDC0941] (max 10 µM)	0.278	-0.165	0.126	-0.21	-0.405	-0.0806	-0.923	0.194	0.285	-0.903	-0.817	0.0537	-0.0303	0.0142
O=C1NC(=NCc2cccs2)SC1=Cc1ccc2ncccc2c1 [R0-3306] (max 10 µM)	-0.117	-0.274	-0.107	0.246	-0.185	0.51	-0.249	-0.112	0.0289	-0.0257	-0.159	-0.142	0.203	0.827
CNCc1ccc(-c2[nH]c3cc(F)cc4c3c2CCNC4=O)cc1 [Rucaparib] (max 10 µM)	0.815	0.875	0.785	0.855	0.718	0.835	0.569	0.68	0.222	0.56	0.423	0.748	0.523	0.772
CC1(N)CCN(c2cnc(-c3cccc(Cl)c3Cl)c(N)n2)CC1 [SHP099] (max 10 µM)	0.797	0.914	0.606	0.819	0.97	0.829	0.976	0.988	0.941	-0.0734	0.444	0.279	0.733	0.457
CN1CCN(CCOc2cc(OC3CCOCC3)c3c(Nc4c(Cl)ccc5c4OCO5)ncnc3c2)CC1 [Saracatinib/AZD0530] (max 10 µM)	0.651	0.31	0.46	-0.115	0.147	0.328	-0.401	0.221	0.724	-0.935	0.0209	0.24	-0.22	0.419
Cc1cc(C(C)Nc2ccccc2)c2nc(N3CCOCC3)cc(=O)n2c1 (stereo not drawn) [TGX221] (max 10 µM)	0.838	1.02	1.03	0.794	0.607	0.239	-0.158	0.982	0.722	0.886	0.858	1	0.782	0.509
CN(C)C/C=C/C(=O)Nc1ccc(C(=O)Nc2cccc(Nc3ncc(Cl)c(-c4c[nH]c5ccccc45)n3)c2)cc1 [THZ1] (max 1 µM)	-0.386	-0.385	-0.455	-0.386	-0.64	-0.163	-0.939	-0.658	-0.0798	-0.438	-0.945	-0.232	-0.0084	-0.219
CN(C)C/C=C/C(=O)Nc1ccc(C(=O)N2CCC[C@@H](Nc3ncc(Cl)c(-c4c[nH]c5ccccc45)n3)C2)cc1 [THZ531] (max 1 µM)	-0.282	0.637	-0.217	-0.294	-0.527	-0.242	-0.947	-0.489	0.018	-0.662	-0.968	-0.377	0.0684	-0.175
CN(C)C/C=C/C(=O)Nc1ccc(C(=O)Nc2cccc(Nc3cc(-c4c[nH]c5ccccc45)ncn3)c2)cc1 [THZ-P1-2] (max 10 µM)	-0.777	-0.623	0.566	-0.578	-0.648	0.262	-0.983	-0.467	-0.278	-0.765	-0.777	-0.344	-0.2	-0.295
Cc1nc(-c2cn3c(n2)-c2ccc(-c4cnn(C(C)(C)C(N)=O)c4)cc2OCC3)n(C(C)C)n1 [Taselisib/GDC0032] (max 10 µM)	0.121	-0.375	0.0336	-0.405	-0.531	-0.0193	-0.927	-0.0297	0.243	-0.937	-0.924	0.0652	0.0192	-0.367
O=C1NC(=O)[C@@H](c2cn3c4c(cccc24)CCC3)[C@@H]1c1c[nH]c2ccccc12 [Tivantinib/ARQ197] (max 10 µM)	-0.0621	-0.488	-0.161	0.163	-0.514	-0.0475	-0.537	-0.218	-0.271	-0.296	-0.321	-0.121	0.114	0.169
Nc1ccc(-c2ccc3ncc4ccc(=O)n(-c5cccc(C(F)(F)F)c5)c4c3c2)cn1 [Torin2] (max 1 µM)	0.0726	-0.289	0.0764	-0.372	-0.39	-0.0631	-0.772	-0.14	0.123	-0.945	-0.84	0.0958	0.0177	-0.0832
CC[C@@H]1C(=O)N(C)c2cnc(Nc3ccc(C(=O)N[C@H]4CC[C@H](N5CCN(CC6CC6)CC5)CC4)cc3OC)nc2N1C(C)C [Volasertib/BI6727] (max 1 µM)	-0.148	-0.534	-0.0817	0.0685	-0.473	-0.17	-0.675	-0.132	-0.179	-0.115	-0.261	-0.13	0.224	0.28
O=C(CCCCCCC(=O)Nc1ccccc1)NO [Vorinostat] (max 10 µM)	-0.0085	-0.113	0.0551	-0.256	-0.491	-0.0452	-0.945	0.0178	0.033	-0.867	-0.872	-0.0468	0.104	0.222
C=CC(=O)Nc1ccc(C(=O)Nc2[nH]nc3c2CN(C(=O)N[C@H](CN(C)C)c2ccccc2)C3(C)C)cc1 [YKL-5-124] (max 10 µM)	-0.205	-0.153	-0.144	-0.411	-0.563	0.13	-0.919	-0.469	-0.0111	-0.771	-0.765	-0.0615	-0.178	-0.0052
CN1CCN(C(=O)c2ccc3cc(CCNc4ncnc5ccc(C#N)cc45)ccc3c2)CC1 [senexin b] (max 10 µM)	0.394	0.175	0.748	0.445	0.76	0.845	0.168	0.817	0.429	0.205	0.466	0.809	0.705	0.444
